The target of this test is T1, human B1 (Homo sapiens, UniProt P46663).
T1 construct: host or cells: CHO-K1
T1 sequence (P46663 1-353): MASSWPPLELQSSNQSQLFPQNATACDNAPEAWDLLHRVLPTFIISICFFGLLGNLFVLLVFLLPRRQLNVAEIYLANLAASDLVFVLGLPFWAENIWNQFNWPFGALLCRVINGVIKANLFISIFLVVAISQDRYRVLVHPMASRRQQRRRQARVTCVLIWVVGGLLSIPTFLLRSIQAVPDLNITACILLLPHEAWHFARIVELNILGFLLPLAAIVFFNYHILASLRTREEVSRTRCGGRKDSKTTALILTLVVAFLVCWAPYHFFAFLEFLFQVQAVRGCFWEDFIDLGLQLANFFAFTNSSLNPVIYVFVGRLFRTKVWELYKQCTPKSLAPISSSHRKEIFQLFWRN
In words: Calcium flux assay for Bradykinin B1 antagonist, CHO-K1 cell line expressing human B1. It counts as cell-based. As to conditions: CHO-K1 cells expressing human B1, agonist Lys-(Des-Arg)-Bradykinin, read-out: Potency (IC50 value against human B1). The essentials:
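CHO-K1 cells expressing human B1, loaded with 5 μM Fluo-4AM (2 h, 37° C) in HEPES buffer pH 7.4 with probenecid and 0.1% BSA, were preincubated 30 min at 25° C with compound (8 concentrations, triplicate, 1% DMSO) before B1 agonist addition. Ca2+ fluorescence monitored at 538 nm; background-normalized integrated values plotted against log antagonist concentration.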
(In general: A change in cytosolic calcium serves as a functional read-out for many receptors and channels.)

Structures can show the parent of a compound that is named as a salt.

In the case of `CN(Cc1ccc(C2=NCCN2)cc1)C(=O)c1coc(CN(C2CC2)S(=O)(=O)c2c(Cl)cc(Br)cc2Cl)c1` [Ex 123, 5-({[(4-Bromo-2,6-dichlorophenyl)sulfonyl](cyclopropyl)amino}methyl)-N-[4-(4,5-dihydro-1H-imidazol-2-yl)benzyl]-N-methylfuran-3-carboxamide trifluoroacetate], the IC50 (as a rule, the concentration needed to halve the response being measured) is < 10 nM.
Take `CN(CCc1ccc(C2=NCCN2)cc1)C(=O)c1coc(CN(C2CC2)S(=O)(=O)c2c(Cl)cc(Br)cc2Cl)c1` [Ex 124, 5-({[(4-Bromo-2,6-dichlorophenyl)sulfonyl](cyclopropyl)amino}methyl)-N-{2-[4-(4,5-dihydro-1H-imidazol-2-yl)phenyl]ethyl}-N-methylfuran-3-carboxamide trifluoroacetate]: the half-inhibitory concentration (IC50) is < 10 nM.
Consider `O=C(c1coc(CN(C2CC2)S(=O)(=O)c2c(Cl)cc(Br)cc2Cl)c1)N1CCCC(c2ccc(CN3CCCC3)cc2)C1` (stereo not shown) [Ex 125, 4-Bromo-2,6-dichloro-N-cyclopropyl-N-{[4-({3-[4-(pyrrolidin-1-ylmethyl)phenyl]piperidin-1-yl}carbonyl)furan-2-yl]methyl}benzenesulfonamide trifluoroacetate], for which the IC50 is 100 to 1000 nM.
The result for `COc1cc(C)c(S(=O)(=O)N(C)Cc2cc(C(=O)N(C)Cc3ccc(CN4CCC(O)CC4)cc3)co2)c(C)c1` [Ex 126, N-{4-[(4-Hydroxypiperidin-1-yl)methyl]benzyl}-5-({[(4-methoxy-2,6-dimethylphenyl)sulfonyl](methyl)amino}methyl)-N-methylfuran-3-carboxamide] reads 10 to 100 nM; that for `COc1cc(C)c(S(=O)(=O)N(C)Cc2cc(C(=O)N(C)Cc3ccc(CN4CCC(OC)CC4)cc3)co2)c(C)c1` [Ex 127, 5-({[(4-Methoxy-2,6-dimethylphenyl)sulfonyl](methyl)amino}methyl)-N-{4-[(4-methoxypiperidin-1-yl)methyl]benzyl}-N-methylfuran-3-carboxamide], 10 to 100 nM.
The result for `COc1cc(C)c(S(=O)(=O)N(C)Cc2cc(C(=O)N(C)Cc3ccc(CN4CC(O)C4)cc3)co2)c(C)c1` [Ex 128, N-{4-[(3-Hydroxyazetidin-1-yl)methyl]benzyl}-5-({[(4-methoxy-2,6-dimethylphenyl)sulfonyl](methyl)amino}methyl)-N-methylfuran-3-carboxamide] reads 100 to 1000 nM; that for `COc1cc(C)c(S(=O)(=O)N(C)Cc2cc(C(=O)N(C)Cc3ccc(CN4CCC(OC)C4)cc3)co2)c(C)c1` (stereo not shown) [Ex 129, 5-({[(4-Methoxy-2,6-dimethylphenyl)sulfonyl](methyl)amino}methyl)-N-{4-[(3-methoxypyrrolidin-1-yl)methyl]benzyl}-N-methylfuran-3-carboxamide], 100 to 1000 nM.
In the case of `COc1cc(C)c(S(=O)(=O)N(C)Cc2cc(C(=O)N(C)Cc3ccc(CN4CCCC(OC)C4)cc3)co2)c(C)c1` (stereo not shown) [Ex 130, 5-({[(4-Methoxy-2,6-dimethylphenyl)sulfonyl](methyl)amino}methyl)-N-{4-[(3-methoxypiperidin-1-yl)methyl]benzyl}-N-methylfuran-3-carboxamide], the IC50 lay within 100 to 1000 nM.
As for `COc1cc(C)c(S(=O)(=O)N(C)Cc2cc(C(=O)N(C)Cc3ccc(CN4CCC(C(=O)N(C)C)C4)cc3)co2)c(C)c1` (stereo not shown) [Ex 131, 1-(4-{[{[5-({[(4-Methoxy-2,6-dimethylphenyl)sulfonyl](methyl)amino}methyl)furan-3-yl]carbonyl}(methyl)amino]methyl}benzyl)-N,N-dimethylpyrrolidine-3-carboxamide], the concentration for half-maximal inhibition (IC50) lay in the range of 100 to 1000 nM.
The result for `COc1cc(C)c(S(=O)(=O)N(C)Cc2cc(C(=O)N(C)Cc3ccc(CN4CCC(NC(C)=O)C4)cc3)co2)c(C)c1` (stereo not shown) [Ex 132, N-(4-{[3-(Acetylamino)pyrrolidin-1-yl]methyl}benzyl)-5-({[(4-methoxy-2,6-dimethylphenyl)sulfonyl](methyl)amino}methyl)-N-methylfuran-3-carboxamide] reads 100 to 1000 nM.

(Values after patent US8623859B2, “Bradykinin B1 antagonists” (Evotec AG, priority 2008, dated 2014).)
